# Results reported in patent US20230233569A1 (Revolution Medicines, Inc., priority 2020, published 2023).
# Read-outs that look alike come from different tables or passages of the source.
# Legend:
# Capan-1 (K-Ras G12V) = assay: CellTiter-Glo cell viability assay, 5-day treatment; format: cell-based; conditions: Homo sapiens, CAPAN-1, 120 h, 5-day treatment; read-out: Capan-1 Cell Viability assay data (K-Ras G12V, IC50)
# Outline: (§1)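 Compounds were dispensed directly onto seeded cells and incubated for 5 days, then plates were equilibrated to room temperature for about 30 minutes before luminescence reading. Signals were expressed as percent of the mean DMSO control and fitted with a four-parameter logistic curve.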
# NCI-H358 (K-Ras G12C) = assay: as above; format: cell-based; conditions: Homo sapiens, NCI-H358, 120 h, 5-day treatment; read-out: H358 Cell Viability assay data (K-Ras G12C, IC50)
# Outline: as §1
# KRAS G12C = KRAS G12C (Homo sapiens, UniProt P01116+P62937, G12C); assay: Disruption of BRAF RBD interaction with Ras (FRET / MOA assay, with Cyclophilin A); format: biochemical
# Outline: (§2)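 Measured via TR-FRET after 3 h at 25 °C with compound (30 μM top, threefold serial steps, ten concentrations) plus K-Ras, Cyclophilin A and BRAF RBD, followed by 1.5 h with anti-His europium (10 nM) and anti-GST allophycocyanin (50 nM). Signal loss versus DMSO gave IC50.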
# KRAS G12D = KRAS G12D (Homo sapiens, UniProt P01116+P62937, G12D); assay: as above; format: biochemical
# Outline: as §2
# KRAS G12S = KRAS G12S (Homo sapiens, UniProt P01116+P62937, G12S); assay: as above; format: biochemical
# Outline: as §2
# KRAS G12V = KRAS G12V (Homo sapiens, UniProt P01116+P62937, G12V); assay: as above; format: biochemical
# Outline: as §2
# KRAS G13C = KRAS G13C (Homo sapiens, UniProt P01116+P62937, G13C); assay: as above; format: biochemical
# Outline: as §2
# KRAS G13D = KRAS G13D (Homo sapiens, UniProt P01116+P62937, G13D); assay: as above; format: biochemical
# Outline: as §2
# KRAS WT = KRAS WT (Homo sapiens, UniProt P01116+P62937); assay: as above; format: biochemical
# Outline: as §2
# NRAS G12C = NRAS G12C (Homo sapiens, UniProt P01111+P62937, G12C); assay: as above; format: biochemical
# KRAS Q61H = KRAS Q61H (Homo sapiens, UniProt P01116+P62937, Q61H); assay: as above; format: biochemical; conditions: KRAS Q61H; read-out: KRAS Q61H FRET data IC50
# Outline: (§3)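 IC50 reflects compound-driven Ras:Cyclophilin A ternary complex displacing BRAF RBD, read as lowered TR-FRET ratio relative to DMSO after Eu anti-His (10 nM) and APC anti-GST (50 nM) detection for 1.5 h. Prior incubation 3 h, 25° C, with 12.5 nM GMPPNP-loaded Ras, 50 nM BRAF RBD, 25 μM Cyclophilin A; top compound 30 μM.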
# NRAS Q61K = NRAS Q61K (Homo sapiens, UniProt P01111+P62937, Q61K); assay: as above; format: biochemical; conditions: NRAS Q61K; read-out: NRAS Q61K FRET data IC50
# Outline: as §3
# NRAS Q61R = NRAS Q61R (Homo sapiens, UniProt P01111+P62937, Q61R); assay: as above; format: biochemical; conditions: NRAS Q61R; read-out: NRAS Q61R FRET data IC50
# Outline: as §3
# NRAS WT = NRAS WT (Homo sapiens, UniProt P01111+P62937); assay: as above; format: biochemical; conditions: NRAS WT; read-out: NRAS WT FRET data IC50
# Outline: as §3
# [1] = read-out: KRAS G12C FRET data, IC50
# [2] = read-out: KRAS G12D FRET data, IC50
# [3] = read-out: KRAS G12S FRET data, IC50
# [4] = KRAS G12V, read-out: KRAS G12V FRET data IC50
# [5] = read-out: KRAS G13C FRET data, IC50
# [6] = KRAS G13D, read-out: KRAS G13D FRET data IC50
# [7] = KRAS WT, read-out: KRAS WT FRET data IC50
# [8] = NRAS G12C, read-out: NRAS G12C FRET data IC50
# NRAS Q61R, sequence (P01111 whole entry Q61R): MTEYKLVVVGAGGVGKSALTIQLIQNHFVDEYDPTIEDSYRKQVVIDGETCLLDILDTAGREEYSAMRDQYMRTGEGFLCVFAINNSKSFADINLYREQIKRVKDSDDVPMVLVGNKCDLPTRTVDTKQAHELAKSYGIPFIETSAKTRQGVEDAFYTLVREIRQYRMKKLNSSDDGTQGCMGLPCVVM
# NRAS Q61R, sequence (P62937 whole entry): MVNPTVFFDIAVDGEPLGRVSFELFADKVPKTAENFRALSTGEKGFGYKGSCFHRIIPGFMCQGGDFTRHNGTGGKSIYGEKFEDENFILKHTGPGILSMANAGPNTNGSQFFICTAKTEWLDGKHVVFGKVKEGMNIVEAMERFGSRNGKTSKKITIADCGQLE
# KRAS G13D, sequence (P01116 1-169 isoform P01116-2 G13D limits assumed): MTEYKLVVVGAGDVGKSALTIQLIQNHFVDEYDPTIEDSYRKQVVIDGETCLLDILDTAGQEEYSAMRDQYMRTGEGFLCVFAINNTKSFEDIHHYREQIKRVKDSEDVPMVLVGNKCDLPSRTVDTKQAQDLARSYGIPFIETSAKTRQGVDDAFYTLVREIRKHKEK
# KRAS G13D, sequence (P62937 whole entry): as the sequence (P62937 whole entry) above
# NRAS Q61K, sequence (P01111 whole entry Q61K): as the sequence (P01111 whole entry Q61R) above, with R61K counted along it
# NRAS Q61K, sequence (P62937 whole entry): as the sequence (P62937 whole entry) above
# KRAS G12D, sequence (P01116 1-169 isoform P01116-2 G12D limits assumed): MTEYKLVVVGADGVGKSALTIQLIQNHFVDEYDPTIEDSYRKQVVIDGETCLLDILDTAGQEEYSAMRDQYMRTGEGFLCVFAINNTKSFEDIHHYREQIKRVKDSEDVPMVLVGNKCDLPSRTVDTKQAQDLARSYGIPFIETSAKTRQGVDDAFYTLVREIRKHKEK
# KRAS G12D, sequence (P62937 whole entry): as the sequence (P62937 whole entry) above
# KRAS G12S, sequence (P01116 1-169 isoform P01116-2 G12S limits assumed): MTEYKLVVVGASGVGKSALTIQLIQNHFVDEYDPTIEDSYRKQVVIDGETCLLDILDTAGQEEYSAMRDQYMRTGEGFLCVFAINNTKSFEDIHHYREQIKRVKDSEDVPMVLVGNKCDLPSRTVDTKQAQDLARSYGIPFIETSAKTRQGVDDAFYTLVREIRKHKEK
# KRAS G12S, sequence (P62937 whole entry): as the sequence (P62937 whole entry) above
# KRAS G13C, sequence (P01116 1-169 isoform P01116-2 G13C): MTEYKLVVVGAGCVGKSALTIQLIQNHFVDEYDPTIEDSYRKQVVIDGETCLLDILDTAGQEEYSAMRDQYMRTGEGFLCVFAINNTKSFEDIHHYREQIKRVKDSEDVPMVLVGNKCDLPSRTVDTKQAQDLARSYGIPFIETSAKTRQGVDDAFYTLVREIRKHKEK
# KRAS G13C, sequence (P62937 whole entry): as the sequence (P62937 whole entry) above
# NRAS WT, sequence (P01111 whole entry): as the sequence (P01111 whole entry Q61R) above, with R61Q counted along it
# NRAS WT, sequence (P62937 whole entry): as the sequence (P62937 whole entry) above
# NRAS G12C, sequence (P01111 whole entry G12C): as the sequence (P01111 whole entry Q61R) above, with G12C, R61Q counted along it
# NRAS G12C, sequence (P62937 whole entry): as the sequence (P62937 whole entry) above
# KRAS WT, sequence (P01116 1-169 isoform P01116-2 limits assumed): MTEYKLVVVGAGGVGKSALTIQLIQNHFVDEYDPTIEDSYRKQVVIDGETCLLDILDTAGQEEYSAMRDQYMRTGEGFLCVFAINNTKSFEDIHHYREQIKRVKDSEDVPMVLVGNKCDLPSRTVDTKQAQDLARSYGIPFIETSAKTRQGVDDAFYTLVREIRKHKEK
# KRAS WT, sequence (P62937 whole entry): as the sequence (P62937 whole entry) above
# KRAS Q61H, sequence (P01116 1-169 isoform P01116-2 Q61H limits assumed): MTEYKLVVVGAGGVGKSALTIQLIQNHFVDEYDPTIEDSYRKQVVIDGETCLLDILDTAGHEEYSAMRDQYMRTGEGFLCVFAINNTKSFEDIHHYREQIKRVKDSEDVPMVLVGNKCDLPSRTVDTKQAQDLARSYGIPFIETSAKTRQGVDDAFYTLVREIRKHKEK
# KRAS Q61H, sequence (P62937 whole entry): as the sequence (P62937 whole entry) above
# KRAS G12C, sequence (P01116 1-169 isoform P01116-2 G12C): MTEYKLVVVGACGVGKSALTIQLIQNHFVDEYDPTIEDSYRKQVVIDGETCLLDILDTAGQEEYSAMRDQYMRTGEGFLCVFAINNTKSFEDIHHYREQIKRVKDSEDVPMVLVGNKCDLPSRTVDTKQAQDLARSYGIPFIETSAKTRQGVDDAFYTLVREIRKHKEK
# KRAS G12C, sequence (P62937 whole entry): as the sequence (P62937 whole entry) above
# KRAS G12V, sequence (P01116 1-169 isoform P01116-2 G12V limits assumed): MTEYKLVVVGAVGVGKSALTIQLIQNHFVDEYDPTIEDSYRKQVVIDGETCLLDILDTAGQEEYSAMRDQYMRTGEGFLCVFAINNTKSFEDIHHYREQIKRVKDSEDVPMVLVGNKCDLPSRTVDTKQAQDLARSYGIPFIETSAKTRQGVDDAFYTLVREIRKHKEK
# KRAS G12V, sequence (P62937 whole entry): as the sequence (P62937 whole entry) above
SMILES,IC50 (NCI-H358 (K-Ras G12C)),IC50 (KRAS Q61H),IC50 (NRAS Q61K),IC50 (NRAS Q61R),IC50 (NRAS WT),IC50 (KRAS G12C; [1]),IC50 (KRAS G12D; [2]),IC50 (KRAS G12S; [3]),IC50 (KRAS G12V; [4]),IC50 (KRAS G13C; [5]),IC50 (KRAS G13D; [6]),IC50 (KRAS WT; [7]),IC50 (NRAS G12C; [8]),IC50 (Capan-1 (K-Ras G12V)),further results
"CCn1c(-c2cccnc2[C@H](C)OC)c2c3cc(ccc31)-c1csc(n1)C[C@H](NC(=O)[C@H](C(C)C)N(C)C(=O)N1CCC[C@H](CN(C)C)C1)C(=O)N1CCC[C@H](N1)C(=O)OCC(C)(C)C2 (atropisomer, axis not shown) [Example A573]",< 10 nM,10 to 100 nM,10 to 100 nM,100 to 1000 nM,10 to 100 nM,–,–,–,–,–,–,–,–,10 to 100 nM,"IC50 (KRAS G12C; KRAS G12C FRET data, IC50): 10 to 100 nM; IC50 (KRAS G12D; KRAS G12D FRET data, IC50): 10 to 100 nM; IC50 (KRAS G12S; KRAS G12S FRET data, IC50): 10 to 100 nM; IC50 (KRAS G12V; KRAS G12V FRET data IC50, KRAS G12V): 100 to 1000 nM; IC50 (KRAS G13C; KRAS G13C FRET data, IC50): 10 to 100 nM; IC50 (KRAS G13D; KRAS G13D FRET data IC50, KRAS G13D): 10 to 100 nM; IC50 (KRAS WT; KRAS WT FRET data IC50, KRAS WT): 10 to 100 nM; IC50 (NRAS G12C; NRAS G12C FRET data IC50, NRAS G12C): 10 to 100 nM"
"CCn1c(-c2cccnc2[C@H](C)OC)c2c3cc(ccc31)-c1csc(n1)C[C@H](NC(=O)[C@H](C(C)C)N(C)C(=O)N1CC(CN(C)C)(OC)C1)C(=O)N1CCC[C@H](N1)C(=O)OCC(C)(C)C2 (atropisomer, axis not shown) [Example A575]",100 to 1000 nM,1000 to 10000 nM,1000 to 10000 nM,1000 to 10000 nM,1000 to 10000 nM,1000 to 10000 nM,1000 to 10000 nM,1000 to 10000 nM,1000 to 10000 nM,1000 to 10000 nM,1000 to 10000 nM,1000 to 10000 nM,1000 to 10000 nM,100 to 1000 nM,–
"CCn1c(-c2cc(C3CCN(C)CC3)cnc2[C@H](C)OC)c2c3cc(ccc31)-c1cc(O)cc(c1)C[C@H](NC(=O)[C@H](C(C)C)N(C)C(=O)[C@@H]1OCC[C@@H]1c1ccccc1)C(=O)N1CCC[C@H](N1)C(=O)OCC(C)(C)C2 (atropisomer, axis not shown) [Example A577]",< 10 nM,< 10 nM,10 to 100 nM,< 10 nM,< 10 nM,< 10 nM,10 to 100 nM,< 10 nM,10 to 100 nM,10 to 100 nM,10 to 100 nM,10 to 100 nM,< 10 nM,< 10 nM,–
"CCn1c(-c2cccnc2[C@H](C)OC)c2c3cc(ccc31)-c1csc(n1)C[C@H](NC(=O)[C@H](CC1CC1)N(C)C(=O)N1CC(OC)C1)C(=O)N1CCC[C@H](N1)C(=O)OCC(C)(C)C2 (atropisomer, axis not shown) [Example A578]",10 to 100 nM,10 to 100 nM,10 to 100 nM,10 to 100 nM,10 to 100 nM,10 to 100 nM,100 to 1000 nM,10 to 100 nM,10 to 100 nM,10 to 100 nM,10 to 100 nM,10 to 100 nM,< 10 nM,100 to 1000 nM,–

# Now from value to molecule, other results behind:
IC50 (NCI-H358 (K-Ras G12C)),IC50 (KRAS Q61H),IC50 (NRAS Q61K),IC50 (NRAS Q61R),IC50 (NRAS WT),IC50 (KRAS G12C; [1]),IC50 (KRAS G12D; [2]),IC50 (KRAS G12S; [3]),IC50 (KRAS G12V; [4]),IC50 (KRAS G13C; [5]),IC50 (KRAS G13D; [6]),IC50 (KRAS WT; [7]),IC50 (NRAS G12C; [8]),SMILES,IC50 (Capan-1 (K-Ras G12V)),further results
100 to 1000 nM,100 to 1000 nM,10 to 100 nM,100 to 1000 nM,100 to 1000 nM,100 to 1000 nM,100 to 1000 nM,100 to 1000 nM,100 to 1000 nM,100 to 1000 nM,100 to 1000 nM,100 to 1000 nM,100 to 1000 nM,"CCn1c(-c2cccnc2[C@H](C)OC)c2c3cc(ccc31)-c1csc(n1)C[C@H](NC(=O)[C@H](C(C)C)N(C)C(=O)N1C[C@H](OC)[C@@H](N)C1)C(=O)N1CCC[C@H](N1)C(=O)OCC(C)(C)C2 (atropisomer, axis not shown) [Example A580]",100 to 1000 nM,–
< 10 nM,10 to 100 nM,100 to 1000 nM,10 to 100 nM,100 to 1000 nM,10 to 100 nM,100 to 1000 nM,100 to 1000 nM,100 to 1000 nM,100 to 1000 nM,100 to 1000 nM,100 to 1000 nM,10 to 100 nM,"CCn1c(-c2cc(N3CCN(C)CC3)cnc2[C@H](C)OC)c2c3cc(ccc31)-c1csc(n1)C[C@H](NC(=O)[C@H](C(C)C)N(C)C(=O)[C@@H]1OCC[C@@H]1c1ccccc1)C(=O)N1CCC[C@H](N1)C(=O)OCC(C)(C)C2 (atropisomer, axis not shown) [Example A583]",< 10 nM,–
